# Results reported in patent US20250268884A1, “Deuterated Domperidone for Treating Gastroparesis” (CinDome Pharma, Inc., priority 2022, published 2025).
# Like-named read-outs stand apart in the source and are kept apart here.
# Columns and labels:
# [1] = system: adults with idiopathic or diabetic gastroparesis; conditions: in vivo
# Description: Safety was evaluated through assessments of Aes, vital signs, physical examinations, clinical laboratory evaluations (including prolactin), and ECG findings. Additionally, a single, optional PGx blood sample may have been collected at any time during the subject's participation in the study.
# Safety variables included Aes, clinical laboratory results (including prolactin), vital signs, ECGs, and physical examination findings.
# [2] = for AUC% extrap / CL/F / RAUC / RCmax / λz: Day 14 (steady state), mean
# Description: The following PK parameters were calculated for deuterated domperidone from plasma concentrations (Day 1) using a noncompartmental method, if the data permitted: • Cmax determined directly from the concentration-time profile.
# [formula] • λz calculated from a semi-logarithmic plot of the plasma concentration versus time curve. The parameter was calculated by linear least-squares regression analysis using points in the terminal logarithmic-linear phase; • T½ calculated as natural logarithm (2)/λz; • CL/F calculated as Dose/AUC0-∞; • Vz/F calculated as Dose/(λz×AUC0-∞); • Rcmax calculated as Cmax on Day 14/Cmax on Day 1; and • RAUC calculated as AUCtau on Day 14/AUCtau on Day 1.
# [3] = system: adults with idiopathic or diabetic gastroparesis; test: ANMS GCSI-DD total and subscale scores, ANMS GCSI-DD manual scoring method, Phase 2a; assay type: in vivo, human; conditions: for ANMS GCSI-DD early satiety subscale score, Baseline / ANMS GCSI-DD early satiety subscale score, Change from baseline to Day 14/EOT / ANMS GCSI-DD early satiety subscale score, Day 14/EOT / ANMS GCSI-DD early satiety subscale score, Percent change from baseline to Day 14/EOT / ANMS GCSI-DD nausea subscale score, Baseline / ANMS GCSI-DD nausea subscale score, Change from baseline to Day 14/EOT / ANMS GCSI-DD nausea subscale score, Day 14/EOT / ANMS GCSI-DD nausea subscale score, Percent change from baseline to Day 14/EOT / ANMS GCSI-DD postprandial fullness subscale score, Baseline / ANMS GCSI-DD postprandial fullness subscale score, Change from baseline to Day 14/EOT / ANMS GCSI-DD postprandial fullness subscale score, Day 14/EOT / ANMS GCSI-DD postprandial fullness subscale score, Percent change from baseline to Day 14/EOT / ANMS GCSI-DD total score, Baseline / ANMS GCSI-DD total score, Day 14/EOT / ANMS GCSI-DD total score, change from baseline to Day 14/EOT / ANMS GCSI-DD total score, percent change from baseline to Day 14/EOT / ANMS GCSI-DD upper abdominal pain subscale score, Baseline / ANMS GCSI-DD upper abdominal pain subscale score, Change from baseline to Day 14/EOT / ANMS GCSI-DD upper abdominal pain subscale score, Day 14/EOT / ANMS GCSI-DD upper abdominal pain subscale score, Percent change from baseline to Day 14/EOT / ANMS GCSI-DD vomiting subscale score, Baseline / ANMS GCSI-DD vomiting subscale score, Change from baseline to Day 14/EOT / ANMS GCSI-DD vomiting subscale score, Day 14/EOT / ANMS GCSI-DD vomiting subscale score, Percent change from baseline to Day 14/EOT: mean, ITT Population
# Description: As known in the art, the ANMS GCSI-DD covers 5 core relevant symptoms of gastroparesis: nausea, early satiety, postprandial fullness, upper abdominal pain and vomiting. Bloating is included as an exploratory symptom. Symptoms are rated on a severity numeric response scale from 0 (none) to 4 (very severe). Vomiting is captured on a frequency response scale and scored as follows: 0 for no episodes, 1 for one episode, 2 for 2 episodes, 3 for 3 episodes, and 4 for 4 or more episodes. In some embodiments, subjects recall symptoms over the previous 24 hours and completes the ANMS GCSI-DD patient-reported symptom questionnaire. In certain embodiments, the total ANMS GCSI-DD score is calculated as the mean of the 3 subscale scores for severity of nausea/vomiting, postprandial fullness/early satiety, and bloating. See, e.g., “The Use Manual for the ANMS GCSI-DD,” American Neurogastroenterology and Motility Society Gastroparesis Cardinal Symptom Index Daily Diary, 2018; https://www.fda.gov/media/125038/download. In other embodiments, the total ANMS GCSI-DD score is calculated using the ‘manual’ scoring method. The ANMS GCSI-DD manual scoring method is generated by summing the scores on each of the five symptom items (nausea, early satiety, postprandial fullness, upper abdominal pain, and number of vomiting episodes) and then dividing by 5, that is the number of items within the gastroparesis related symptom score. […] The ANMS GCSI-DD gastroparesis symptom daily score can range from 0 to 4. High scores on the ANMS GCSI-DD reflect greater symptom severity. See, e.g., “User Manuel for the ANMS GCSI-DD,” Federal Drug Administration at https://www.fda.gov/media/125038/download, which is hereby incorporated by reference.
# The severity scores of 4 gastroparesis-related symptoms (nausea, early satiety, postprandial fullness, upper abdominal pain) range from 0-none to 4-very severe. The vomiting score assesses the number of vomiting episodes during the day, capped at a maximum of 4; thus, the scores for vomiting range from 0 (no episodes of vomiting) to 4 (4 or more episodes of vomiting). Vomiting frequency is scored as 0 episodes, 1 episode, 2 episodes, 3 episodes, or 4 or more episodes (capped as 4).
# Table 11 presents the ANMS GCSI-DD total and subscale scores and change and percent change from baseline for the ITT Population using the ANMS GC SI-DD Manual scoring method. […] Subjects receiving placebo also experienced decreases in ANMS GCSI-DD total and subscale scores.
# [4] = 10 mg dose, healthy subjects
smiles,measurement,setting,value
"[2H]c1c([2H])c([2H])c2c([nH]c(=O)n2CCCN2CCC(n3c(=O)[nH]c4cc(Cl)ccc43)CC2)c1[2H] [Deudomperidone, 1-{3-[4-(5-chloro-2-oxo-2,3-dihydro-1H-1,3-benzodiazol-1-yl)piperidin-1yl]propyl}-2,3-dihydro(4,5,6,7-D4)-1H-1,3-benzodiazol-2-one]",tolerability of multiple doses,[1],generally well tolerated
same,AUC% extrap,[2]; 5 mg BID,11.72%
same,CL/F,[2]; 5 mg BID,48.394 L/h
same,RAUC,[2]; 5 mg BID,1.653
same,RCmax,[2]; 5 mg BID,1.838
same,λz,[2]; 5 mg BID,0.0413 h⁻¹
same,AUC% extrap,[2]; 10 mg BID,9.31%
same,CL/F,[2]; 10 mg BID,69.640 L/h
same,RAUC,[2]; 10 mg BID,2.430
same,RCmax,[2]; 10 mg BID,2.179
same,λz,[2]; 10 mg BID,0.0454 h⁻¹
same,AUC% extrap,[2]; 20 mg QD,8.48%
same,CL/F,[2]; 20 mg QD,55.317 L/h
same,RAUC,[2]; 20 mg QD,2.011
same,RCmax,[2]; 20 mg QD,2.620
same,λz,[2]; 20 mg QD,0.0454 h⁻¹
same,exposure (Cmax and AUC) in patients with gastroparesis compared to that expected from healthy subjects,[2]; given dose level,approximately 2 fold
same,"ANMS GCSI-DD early satiety subscale score, Baseline",[3]; 5 mg BID,2.63
same,"ANMS GCSI-DD early satiety subscale score, Change from baseline to Day 14/EOT",[3]; 5 mg BID,−0.85
same,"ANMS GCSI-DD early satiety subscale score, Day 14/EOT",[3]; 5 mg BID,1.78
same,"ANMS GCSI-DD early satiety subscale score, Percent change from baseline to Day 14/EOT",[3]; 5 mg BID,−30.65%
same,"ANMS GCSI-DD nausea subscale score, Baseline",[3]; 5 mg BID,2.59
same,"ANMS GCSI-DD nausea subscale score, Change from baseline to Day 14/EOT",[3]; 5 mg BID,−0.93
same,"ANMS GCSI-DD nausea subscale score, Day 14/EOT",[3]; 5 mg BID,1.67
same,"ANMS GCSI-DD nausea subscale score, Percent change from baseline to Day 14/EOT",[3]; 5 mg BID,−41.32%
same,"ANMS GCSI-DD postprandial fullness subscale score, Baseline",[3]; 5 mg BID,2.93
same,"ANMS GCSI-DD postprandial fullness subscale score, Change from baseline to Day 14/EOT",[3]; 5 mg BID,−0.70
same,"ANMS GCSI-DD postprandial fullness subscale score, Day 14/EOT",[3]; 5 mg BID,2.22
same,"ANMS GCSI-DD postprandial fullness subscale score, Percent change from baseline to Day 14/EOT",[3]; 5 mg BID,−26.11%
same,"ANMS GCSI-DD total score, Baseline",[3]; 5 mg BID,2.16
same,"ANMS GCSI-DD total score, Day 14/EOT",[3]; 5 mg BID,1.47
same,"ANMS GCSI-DD total score, change from baseline to Day 14/EOT",[3]; 5 mg BID,−0.69
same,"ANMS GCSI-DD total score, percent change from baseline to Day 14/EOT",[3]; 5 mg BID,−35.01%
same,"ANMS GCSI-DD upper abdominal pain subscale score, Baseline",[3]; 5 mg BID,2.19
same,"ANMS GCSI-DD upper abdominal pain subscale score, Change from baseline to Day 14/EOT",[3]; 5 mg BID,−0.85
same,"ANMS GCSI-DD upper abdominal pain subscale score, Day 14/EOT",[3]; 5 mg BID,1.33
same,"ANMS GCSI-DD upper abdominal pain subscale score, Percent change from baseline to Day 14/EOT",[3]; 5 mg BID,−43.15%
same,"ANMS GCSI-DD vomiting subscale score, Baseline",[3]; 5 mg BID,0.44
same,"ANMS GCSI-DD vomiting subscale score, Change from baseline to Day 14/EOT",[3]; 5 mg BID,−0.11
same,"ANMS GCSI-DD vomiting subscale score, Day 14/EOT",[3]; 5 mg BID,0.33
same,"ANMS GCSI-DD vomiting subscale score, Percent change from baseline to Day 14/EOT",[3]; 5 mg BID,−64.00%
same,"ANMS GCSI-DD early satiety subscale score, Baseline",[3]; 10 mg BID,2.67
same,"ANMS GCSI-DD early satiety subscale score, Change from baseline to Day 14/EOT",[3]; 10 mg BID,−1.08
same,"ANMS GCSI-DD early satiety subscale score, Day 14/EOT",[3]; 10 mg BID,1.62
same,"ANMS GCSI-DD early satiety subscale score, Percent change from baseline to Day 14/EOT",[3]; 10 mg BID,−40.56%
same,"ANMS GCSI-DD nausea subscale score, Baseline",[3]; 10 mg BID,2.52
same,"ANMS GCSI-DD nausea subscale score, Change from baseline to Day 14/EOT",[3]; 10 mg BID,−1.20
same,"ANMS GCSI-DD nausea subscale score, Day 14/EOT",[3]; 10 mg BID,1.34
same,"ANMS GCSI-DD nausea subscale score, Percent change from baseline to Day 14/EOT",[3]; 10 mg BID,−48.88%
same,"ANMS GCSI-DD postprandial fullness subscale score, Baseline",[3]; 10 mg BID,3.01
same,"ANMS GCSI-DD postprandial fullness subscale score, Change from baseline to Day 14/EOT",[3]; 10 mg BID,−1.24
same,"ANMS GCSI-DD postprandial fullness subscale score, Day 14/EOT",[3]; 10 mg BID,1.79
same,"ANMS GCSI-DD postprandial fullness subscale score, Percent change from baseline to Day 14/EOT",[3]; 10 mg BID,−41.52%
same,"ANMS GCSI-DD total score, Baseline",[3]; 10 mg BID,2.14
same,"ANMS GCSI-DD total score, Day 14/EOT",[3]; 10 mg BID,1.17
same,"ANMS GCSI-DD total score, change from baseline to Day 14/EOT",[3]; 10 mg BID,−0.98
same,"ANMS GCSI-DD total score, percent change from baseline to Day 14/EOT",[3]; 10 mg BID,−44.07%
same,"ANMS GCSI-DD upper abdominal pain subscale score, Baseline",[3]; 10 mg BID,1.79
same,"ANMS GCSI-DD upper abdominal pain subscale score, Change from baseline to Day 14/EOT",[3]; 10 mg BID,−0.80
same,"ANMS GCSI-DD upper abdominal pain subscale score, Day 14/EOT",[3]; 10 mg BID,0.97
same,"ANMS GCSI-DD upper abdominal pain subscale score, Percent change from baseline to Day 14/EOT",[3]; 10 mg BID,−50.43%
same,"ANMS GCSI-DD vomiting subscale score, Baseline",[3]; 10 mg BID,0.71
same,"ANMS GCSI-DD vomiting subscale score, Change from baseline to Day 14/EOT",[3]; 10 mg BID,−0.59
same,"ANMS GCSI-DD vomiting subscale score, Day 14/EOT",[3]; 10 mg BID,0.14
same,"ANMS GCSI-DD vomiting subscale score, Percent change from baseline to Day 14/EOT",[3]; 10 mg BID,−71.73%
same,"ANMS GCSI-DD early satiety subscale score, Baseline",[3]; 20 mg QD,2.64
same,"ANMS GCSI-DD early satiety subscale score, Change from baseline to Day 14/EOT",[3]; 20 mg QD,−1.44
same,"ANMS GCSI-DD early satiety subscale score, Day 14/EOT",[3]; 20 mg QD,1.20
same,"ANMS GCSI-DD early satiety subscale score, Percent change from baseline to Day 14/EOT",[3]; 20 mg QD,−54.88%
same,"ANMS GCSI-DD nausea subscale score, Baseline",[3]; 20 mg QD,2.67
same,"ANMS GCSI-DD nausea subscale score, Change from baseline to Day 14/EOT",[3]; 20 mg QD,−1.93
same,"ANMS GCSI-DD nausea subscale score, Day 14/EOT",[3]; 20 mg QD,0.73
same,"ANMS GCSI-DD nausea subscale score, Percent change from baseline to Day 14/EOT",[3]; 20 mg QD,−62.56%
same,"ANMS GCSI-DD postprandial fullness subscale score, Baseline",[3]; 20 mg QD,2.84
same,"ANMS GCSI-DD postprandial fullness subscale score, Change from baseline to Day 14/EOT",[3]; 20 mg QD,−1.31
same,"ANMS GCSI-DD postprandial fullness subscale score, Day 14/EOT",[3]; 20 mg QD,1.53
same,"ANMS GCSI-DD postprandial fullness subscale score, Percent change from baseline to Day 14/EOT",[3]; 20 mg QD,−45.50%
same,"ANMS GCSI-DD total score, Baseline",[3]; 20 mg QD,2.13
same,"ANMS GCSI-DD total score, Day 14/EOT",[3]; 20 mg QD,0.88
same,"ANMS GCSI-DD total score, change from baseline to Day 14/EOT",[3]; 20 mg QD,−1.25
same,"ANMS GCSI-DD total score, percent change from baseline to Day 14/EOT",[3]; 20 mg QD,−55.99%
same,"ANMS GCSI-DD upper abdominal pain subscale score, Baseline",[3]; 20 mg QD,1.96
same,"ANMS GCSI-DD upper abdominal pain subscale score, Change from baseline to Day 14/EOT",[3]; 20 mg QD,−1.09
same,"ANMS GCSI-DD upper abdominal pain subscale score, Day 14/EOT",[3]; 20 mg QD,0.87
same,"ANMS GCSI-DD upper abdominal pain subscale score, Percent change from baseline to Day 14/EOT",[3]; 20 mg QD,−41.03%
same,"ANMS GCSI-DD vomiting subscale score, Baseline",[3]; 20 mg QD,0.53
same,"ANMS GCSI-DD vomiting subscale score, Change from baseline to Day 14/EOT",[3]; 20 mg QD,−0.47
same,"ANMS GCSI-DD vomiting subscale score, Day 14/EOT",[3]; 20 mg QD,0.07
same,"ANMS GCSI-DD vomiting subscale score, Percent change from baseline to Day 14/EOT",[3]; 20 mg QD,−94.64%
same,"ANMS GCSI-DD total score and all subscale scores at Day 14/EOT, manual scoring","[3]; all deudomperidone treatment groups, placebo also decreased",decreased from baseline
same,Cmax lower than the same oral dose domperidone,[4],approximately 50%
